This note sets out measurements from patent publication US8236984B2, “Compound and use thereof in the treatment of amyloidosis” (Pentraxin Therapeutics Ltd., priority 2007, dated 2012).

The target of test [1] is L55P variant transthyretin (Homo sapiens, UniProt P02766, L75P). The experiment in a line: Inhibition of transthyretin aggregation at acidic pH (turbidity at 400 nm). The test is classed as biochemical. On the procedure:
3.3.2 Inhibition of transthyretin aggregation by 4ajm15: In pilot experiments, transthyretin aggregates were formed from wild type transthyretin (3.6 μM) after incubation at acidic pH for 3 d at 37° C. (Colon and Kelly, 1992). The efficacy of 4ajm15 as an inhibitor of transthyretin aggregate formation was then compared with other transthyretin ligand compounds. […] After 30 min at 37° C., the pH was adjusted to pH 4.4 (with 0.2 M sodium acetate buffer pH 4.0), and the ˜1 ml mixtures were incubated unstirred for 3 d at 37° C.
Using the same method the activities of mds84 and 4ajm15 as inhibitors of the aggregation of both wild type transthyretin and the most aggressively aggregating transthyretin variant, L55P, were evaluated in triplicate with both proteins at 3.6 μM and with one (3.6 μM) or 3 equivalents (10.8 μM) of each ligand. Wild type transthyretin was studied at pH 4.4 and L55P at pH 5.0. […] Mean values and standard deviations are shown in Table 2 and in FIG. 4, where results with 1:1 molar ratio are shown cross hatched and 3:1 molar ratio in open bars.

Test [2] addresses T1, wild type transthyretin isolated from plasma (Homo sapiens, UniProt P02766).
T1 construct: Native tetrameric transthyretin was purified from fractionated human plasma; from tissue; host or cells: human plasma
In words: Competition with 125I-T4 for binding by pure transthyretin. Conditions: 125 nM transthyretin, trace 125I-T4, pH 8.0, overnight 4° C.

Another test deals with T2, transthyretin (Homo sapiens, UniProt P02766).
T2 construct: Native tetrameric transthyretin was purified from fractionated human plasma; from tissue; host or cells: human plasma
In words: Intrinsic fluorescence quenching of transthyretin by ligand titration. Format: binding. Particulars: 1 μM transthyretin, PBS pH 7.4, ligand 0-2 μM, excitation 280 nm, 20° C. On the procedure:
3.2.1. Binding of 4ajm15 and mds84 by transthyretin. The interactions between the ligands 4ajm15 or mds84 and transthyretin were studied by monitoring intrinsic fluorescence in the emission range 300-500 nm on excitation at 280 nm using a Perkin Elmer LS55 fluorimeter and a standard 1 cm path length quartz cell at 20° C. Quenching of tryptophan was achieved by titrating 1 μM transthyretin in PBS, pH 7.4 with increasing concentrations of each ligand in the range 0-2 μM (FIG. 2A). […] At the same time the changes in 4ajm15 fluorescence upon binding to the protein were monitored in the emission range 400-600 nm and excitation at 340 nm that is the wavelength specific for 4ajm15 excitation. In these conditions, accumulation of the spectra highlights an isosbestic point at 483 nm (FIG. 2B). The same results were achieved by using mds84 (not shown). The results of the titration of 4ajm15 in presence and absence of transthyretin support a model of binding in which both the binding sites are simultaneously occupied by the palindromic ligand.
In each case increasing concentrations of ligand (0-2 μM) were added to 1 μM protein. The arrow in FIG. 2B indicates the isosbestic point at 483 nm occurring on formation of the protein ligand complex. […] The percent quenching represents ΔF/F0 where F0 is fluorescence intensity prior to the addition of ligands and AF is the decrease in fluorescence at a given ligand concentration.

For test [3], the target named is T3, wild type transthyretin (Homo sapiens, UniProt P02766). The experiment in a line: Differential scanning calorimetry of transthyretin with ligand. Format: binding. Also noted: isolated from pooled normal human plasma, was obtained from Scipac; purchased Scipac Ltd, Sittingbourne, Kent, UK; host or cells: pooled normal human plasma. (DSC measures the heat that a sample takes up or gives off during a temperature scan.)

Test [4] concerns the target T4, native wild type transthyretin (Homo sapiens, UniProt P02766).
T4 construct: isolated from pooled normal human plasma, was obtained from Scipac; purchased Scipac Ltd, Sittingbourne, Kent, UK; host or cells: pooled normal human plasma
The experiment in a line: Gel filtration (Superdex 200) of transthyretin-ligand complexes. Format: binding. Particulars: for A280/A330 ratio of main component eluting at 14.4 ml: 2 nanomoles transthyretin incubated 1 h with 1 μl of 4 mM ligand in DMSO, PBS; for dissociation of ligand from the complex during gel filtration: after 100 volume solvent exchanges. On the procedure: 1.3 Gel filtration. Native transthyretin was eluted with either PBS or 150 mM ammonium bicarbonate (pH 7.6) from a Superdex 200 (30×1.0 cm) column, run on an ÅKTA Explorer system, as a UV absorbing peak (A280/A330˜30 to 50:1) with Ve 14.4 ml (FIG. 1). A minor (<5%) higher molecular weight component eluting at 12.5 ml was always seen.
3.1.1. Binding of 4ajm15 and mds84 by transthyretin. One μl (5.3 nmol) of a concentrated (5.3 mM) solution of 4ajm15 in DMSO was added to 3.8 nmol of transthyretin in 100 μl PBS (1.4 fold molar excess of ligand) and incubated at room temperature for 30 min. The sample was chromatographed on Superdex 200, where the transthyretin-4ajm15 complex eluted at 14.4 ml, with a reduced A280/A330 ratio (˜5:1) consistent with binding. A similar result was obtained with transthyretin and 4ajm15 when chromatography was undertaken in volatile ammonium bicarbonate buffer. A similar result was also obtained when mds84 (2 nmol) was first dried into a tube and then resuspended in 5 μl of DMSO before adding the protein solution. In further experiments, 2 nanomoles of native wild type transthyretin (Scipac) were incubated in 55 μl of PBS for 1 h with either 1 μl DMSO (control) or 1 μl of a 4 mM solution in DMSO of mds84 or 4ajm15. Samples were chromatographed on a Superdex 200 column (30×1 cm) in PBS at 0.5 ml/min, with 0.5 ml fractions collected (FIG. 1). […] The full UV spectra of the main components were determined in each case and were consistent with a transthyretin:ligand ratio of ˜1:0.9.

Test [5] concerns the target T3, wild type transthyretin. The experiment in a line: Displacement of 125I-T4 from transthyretin in whole serum. Format: binding. Particulars: mean. An excerpt:
3.2.3.2. Quantitative studies in serum. […] The immunoprecipitate was recovered by centrifugation, washed twice with 0.1 M Tris, 0.1 M NaCl, pH 8.0 and counted.
A general note: Loss of bound radioactivity is the signal in a displacement assay; it reports binding, not function.

The mark [6] stands for this setting: five fold molar excess of ligand.

One may read the IC50 as the concentration needed to halve the response being measured. A high value points to lower potency. Consider `O=C(O)c1ccccc1Nc1cc(Cl)c(OCCCCCCCCCCCOc2c(Cl)cc(Nc3ccccc3C(=O)O)cc2Cl)c(Cl)c1` [4ajm15, 2,2′-(4,4′-(undecane-1,11-diylbis(oxy))bis(3,5-dichloro-4,1-phenylene))bis(azanediyl)dibenzoic acid], for which the “aggregation of L55P in the presence of ligand” value in test [1] (L55P, pH 5.0, results not shown, in words) is given as “identical to those with mds84”. Moreover, the half-maximal inhibitory concentration (IC50) in test [2] is 0.2 ± 0.07 µM; at wild type transthyretin [5], 27 µM. Also, the “intrinsic fluorescence of transthyretin remaining after titration” value on transthyretin came to 40%. The “midpoint of thermal denaturation (Tm) in the presence of ligand” value at wild type transthyretin [3] (preliminary DSC, 0.02 mM tetramer, 0.2 mM ligand, PBS pH 7.4, 2% DMSO, transthyretin alone 99.5) amounted to 103.6 °C. Also, the “A280/A330 ratio of main component eluting at 14.4 ml” value in test [4] is given as around 4.6. Further, the “dissociation of ligand from the complex during gel filtration” value in test [4] is listed as “negligible dissociation”.

On to `O=C(O)c1ccccc1Nc1cc(Cl)c(OCCCCCCCOc2c(Cl)cc(Nc3ccccc3C(=O)O)cc2Cl)c(Cl)c1` [mds84, 2,2′-(4,4′-(heptane-1,7-diylbis(oxy))bis(3,5-dichloro-4,1-phenylene))bis(azanediyl)dibenzoic acid], for which the “Aggregation of transthyretin, Mean (1:1)” value in test [1] (L55P 3.6 μM, ligand 3.6 μM, pH 5.0) is recorded as 17 per cent of control with DMSO alone. Moreover, the “Aggregation of transthyretin, Mean (3:1)” value in test [1] (L55P 3.6 μM, ligand 10.8 μM, pH 5.0) is 9.9 per cent of control with DMSO alone. This compound displayed an IC50 in test [2] of 0.15 ± 0.025 µM. The “intrinsic fluorescence of transthyretin remaining after titration” value at transthyretin came out at 40%. Further, on wild type transthyretin [3] (setting [6]), the “Tm of wild type transthyretin with the ligand” value was 107.5 °C and the “increase in Tm of wild type transthyretin” value was determined as 6.2 °C. In test [4], the “A280/A330 ratio of main component eluting at 14.4 ml” value was around 4.6 and the “dissociation of ligand from the complex during gel filtration” value is given as “negligible dissociation”. This compound also displayed an IC50 at wild type transthyretin [5] of 11.9 µM.
